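Test compounds were applied to cells in 96-well plates for 48 hours at 5 doses. GI50 = concentration required for 50% inhibition of growth.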 Active and inactive are the calls of the source. Cut-off read from the data, not from the text of the source: active = GI50 up to about 1.1 µM and inactive = higher.

Test systems include HOP-62; U-251; SW-620; SN12C; SK-MEL-5; SNB-19; HOP-92; LOX IMVI; A549; HCT-15; SNB-75; HCT-116; HT-29; HL-60; SK-MEL-28; SF-268; SK-MEL-2; NCI-H226.
What all share (test): NCI tumour cell line growth inhibition, 48 h

In the case of `COc1cc(Cl)c2c3c(c(C(C)=O)oc13)CCC2`, the GI50 in the test with HOP-62, with U-251, with SW-620, with SN12C, in the test with SK-MEL-5 and in the test on SNB-19 was > 100 µM (inactive) throughout. Besides, the GI50 is 92.9 µM (inactive) with HOP-92; > 100 µM (inactive) with LOX IMVI; > 100 µM (inactive) in the test on A549; above 100 µM in the test with HCT-15; > 100 µM (inactive) with SNB-75; > 100 µM (inactive) in the test with HCT-116. Besides, the GI50 in the test on HT-29, in the test on HL-60 and in the test on SK-MEL-28 was > 100 µM (inactive) each time.
Turning to `CC(C)C1N2CCCCC2[C@@H]2c3[nH]c4ccccc4c3CCN12` (some centres undefined), the GI50 in the test with HOP-62, in the test on U-251, in the test on SW-620, with SN12C, with SK-MEL-5 and in the test with SNB-19 was > 100 µM (inactive) throughout. For the same molecule, the GI50 was > 100 µM (inactive) in the test with HOP-92; > 100 µM (inactive) in the test on A549; above 100 µM in the test on HCT-15; > 100 µM (inactive) with SNB-75; > 100 µM (inactive) in the test with HCT-116; > 100 µM (inactive) in the test with SF-268. Moreover, the GI50 in the test with HT-29, in the test with HL-60, with SK-MEL-28 and with SK-MEL-2 was > 100 µM (inactive) each time.
On to `CC(=O)NC(CCCCN(Cc1ccccc1)C(=O)N(C)N=O)C(=O)NCc1ccccc1` (centres undefined), for which the GI50 in the test on HOP-62 is > 100 µM (inactive); with U-251, > 100 µM (inactive); in the test on NCI-H226 it was 36.5 µM (inactive); with SW-620, > 100 µM (inactive); in the test on SN12C it was > 100 µM (inactive); in the test on SK-MEL-5 it was 47.1 µM (inactive). The GI50 in the test on SNB-19 was > 100 µM (inactive); with HOP-92, 61.8 µM (inactive); in the test with LOX IMVI it was > 100 µM (inactive); in the test on A549 it was 95.9 µM (inactive); in the test on HCT-15, above 100 µM; with SNB-75, 31.9 µM (inactive). Besides, the GI50 with HCT-116 is 71.3 µM (inactive); in the test on SF-268 it was 38.9 µM (inactive); in the test on HT-29, 83.9 µM (inactive); in the test with SK-MEL-28, > 100 µM (inactive); with SK-MEL-2, > 100 µM (inactive).
With `CC1=C(O)C(=O)C2C(=O)C1C(C)C2c1ccc(C)cc1` (centres undefined), the GI50 in the test on HOP-62, in the test on U-251, with SW-620, with SK-MEL-5, in the test with SNB-19 and in the test with HOP-92 was > 100 µM (inactive) each time. For the same molecule, the GI50 in the test on LOX IMVI is > 100 µM (inactive); in the test on A549, > 100 µM (inactive); in the test with HCT-15, above 100 µM; in the test on SNB-75 it was 98.9 µM (inactive); in the test with SF-268, > 100 µM (inactive); with HT-29, > 100 µM (inactive). In addition, the GI50 in the test with SK-MEL-28 and with SK-MEL-2 was > 100 µM (inactive) throughout.
For `C[C@]12CC[C@H](OC(=O)Nc3ccccc3)CC1=CC[C@@H]1C2CC[C@]2(C)/C(=N/OC(=O)Nc3ccccc3)CCC12` (some centres undefined), the GI50 in the test on U-251 was 43.7 µM (inactive); in the test on SW-620 it was > 100 µM (inactive); with SN12C, 1.79 µM (inactive); in the test with SK-MEL-5, 5.35 µM (inactive); with SNB-19, 76.2 µM (inactive); with HOP-92 it was 20.1 µM (inactive). For the same molecule, the GI50 with LOX IMVI is 5.32 µM (inactive); in the test on A549, 7.85 µM (inactive); in the test with HCT-15 it was 1.77 µM; with SNB-75, 5.5 µM (inactive); in the test on HCT-116, 4.18 µM (inactive); with SF-268, 7.94 µM (inactive). Further, the GI50 with HT-29 was 2.88 µM (inactive); in the test with HL-60, 5.82 µM (inactive); in the test with SK-MEL-2 it was > 100 µM (inactive).
In the case of `C=C=C(C(=O)OC)[S+]([O-])c1ccccc1[N+](=O)[O-]` (centres undefined), the GI50 in the test on HOP-62 is > 100 µM (inactive); in the test with U-251, > 100 µM (inactive); in the test with NCI-H226, > 100 µM (inactive); in the test with SW-620 it was 99.5 µM (inactive); in the test on SN12C it was > 100 µM (inactive); with SK-MEL-5, > 100 µM (inactive). Moreover, the GI50 with SNB-19 was > 100 µM (inactive); with A549, > 100 µM (inactive); in the test on HCT-15 it was 59 µM; in the test on SNB-75, > 100 µM (inactive); in the test with HCT-116, 89.9 µM (inactive); with SF-268, > 100 µM (inactive). For the same molecule, the GI50 in the test with HT-29 is > 100 µM (inactive); with HL-60 it was 75.2 µM (inactive); in the test on SK-MEL-2, > 100 µM (inactive).
Regarding `O=C1C=CC2(C=C1)C[C@H](NC(=O)C(F)(F)F)C(=O)O2`, the GI50 in the test on HOP-62 was > 100 µM (inactive); in the test on U-251, 54.3 µM (inactive); in the test on NCI-H226, > 100 µM (inactive); in the test on SN12C it was 50 µM (inactive); in the test on SK-MEL-5, 76.2 µM (inactive); in the test on SNB-19, > 100 µM (inactive). Moreover, the GI50 was 22.3 µM (inactive) in the test on LOX IMVI; > 100 µM (inactive) in the test with A549; 31.6 µM in the test with HCT-15; 69 µM (inactive) in the test with SNB-75; 58.9 µM (inactive) with HCT-116; 37.9 µM (inactive) in the test on SF-268. The GI50 with HT-29 was 79.6 µM (inactive); in the test with HL-60, 14.2 µM (inactive); in the test on SK-MEL-28 it was 18.5 µM (inactive).
With `O=C(CSc1nc(=O)c(-c2ccccc2NC(=O)C(F)(F)F)n[nH]1)NC(=O)Nc1ccccc1`, the GI50 was > 100 µM (inactive) with HOP-62; > 100 µM (inactive) with U-251; 67.8 µM (inactive) in the test on NCI-H226; > 100 µM (inactive) with SW-620; > 100 µM (inactive) in the test with SN12C; > 10 µM (inactive) with SK-MEL-5. For the same molecule, the GI50 in the test on SNB-19 is > 100 µM (inactive); in the test with HOP-92, > 100 µM (inactive); with LOX IMVI, > 100 µM (inactive); in the test with A549 it was > 100 µM (inactive); in the test with HCT-15 it was above 100 µM; with SNB-75, 21.3 µM (inactive). Also, the GI50 is > 100 µM (inactive) in the test on HCT-116; 56.6 µM (inactive) in the test on SF-268; > 100 µM (inactive) with HT-29; > 100 µM (inactive) in the test on SK-MEL-28; > 100 µM (inactive) in the test on SK-MEL-2.
Consider `COc1cc(-c2cc(=O)c3c(O)c(OC)c(OC)c(OC)c3o2)ccc1O`, for which the GI50 in the test with HOP-62 was 21.6 µM (inactive); in the test on U-251 it was 8.97 µM (inactive); with SW-620, 31.7 µM (inactive); in the test on SN12C, 26.7 µM (inactive); in the test on SK-MEL-5, 15.3 µM (inactive); with SNB-19 it was 34 µM (inactive). Besides, the GI50 is 2.33 µM (inactive) in the test on HOP-92; 16.8 µM (inactive) in the test with LOX IMVI; 27.3 µM (inactive) in the test with A549; 7.74 µM in the test with HCT-15; 24.8 µM (inactive) in the test with HCT-116; 26.5 µM (inactive) in the test with SF-268. The GI50 is 31.3 µM (inactive) in the test with HL-60, 23.5 µM (inactive) with SK-MEL-28 and 17.7 µM (inactive) with SK-MEL-2.

For the origin of these results see ChEMBL document CHEMBL1201862, “PubChem BioAssay data set” (2004).
